{"source": "patent US8367087B2", "about": "“Soil amendment compositions and methods for using the same” (priority 1998, dated 2013)", "test_system": "J2 larvae of the Root Knot Nematode (Meloidogyne incognita)", "assay": "Touch response of J2 larvae after 24 hours exposure to predisposing agents", "type": "in vivo", "experimental": "The merits of alternative predisposing agents were examined by subjecting J2 larvae of the Root Knot Nematode (Meloidogyne incognita) to solutions of lignosulfonate and gallic acid. J2 larvae were exposed 24 hours to various concentrations of the materials in shallow 50 ml beakers. Following exposure, nematodes were inspected for activity level using touch response: […]", "data": [{"compound": "O=C(O)c1cc(O)c(O)c(O)c1", "note": "[Gal Ac, Gallic Acid]", "values": [{"measurement": "Control %", "setting": "5 ppm", "result": 30.7, "unit": "%"}, {"measurement": "active, responding nematodes per total examined (viable/total), Mean", "setting": "5 ppm", "result": "312/450"}, {"measurement": "active, responding nematodes per total examined (viable/total), Replication 1", "setting": "5 ppm", "result": "305/462"}, {"measurement": "active, responding nematodes per total examined (viable/total), Replication 2", "setting": "5 ppm", "result": "316/440"}, {"measurement": "active, responding nematodes per total examined (viable/total), Replication 3", "setting": "5 ppm", "result": "326/447"}, {"measurement": "active, responding nematodes per total examined (viable/total), Replication 4", "setting": "5 ppm", "result": "302/450"}, {"measurement": "active, responding nematodes per total examined (viable/total), Total", "setting": "5 ppm", "result": "1249/1799"}, {"measurement": "Control %", "setting": "25 ppm", "result": 47.7, "unit": "%"}, {"measurement": "active, responding nematodes per total examined (viable/total), Mean", "setting": "25 ppm", "result": "239/457"}, {"measurement": "active, responding nematodes per total examined (viable/total), Replication 1", "setting": "25 ppm", "result": "250/458"}, {"measurement": "active, responding nematodes per total examined (viable/total), Replication 2", "setting": "25 ppm", "result": "248/449"}, {"measurement": "active, responding nematodes per total examined (viable/total), Replication 3", "setting": "25 ppm", "result": "232/459"}, {"measurement": "active, responding nematodes per total examined (viable/total), Replication 4", "setting": "25 ppm", "result": "225/462"}, {"measurement": "active, responding nematodes per total examined (viable/total), Total", "setting": "25 ppm", "result": "955/1828"}, {"measurement": "Control %", "setting": "100 ppm", "result": 60.9, "unit": "%"}, {"measurement": "active, responding nematodes per total examined (viable/total), Mean", "setting": "100 ppm", "result": "176/450"}, {"measurement": "active, responding nematodes per total examined (viable/total), Replication 1", "setting": "100 ppm", "result": "193/450"}, {"measurement": "active, responding nematodes per total examined (viable/total), Replication 2", "setting": "100 ppm", "result": "185/448"}, {"measurement": "active, responding nematodes per total examined (viable/total), Replication 3", "setting": "100 ppm", "result": "176/436"}, {"measurement": "active, responding nematodes per total examined (viable/total), Replication 4", "setting": "100 ppm", "result": "150/464"}, {"measurement": "active, responding nematodes per total examined (viable/total), Total", "setting": "100 ppm", "result": "704/1798"}, {"measurement": "Control %", "setting": "1000 ppm", "result": 92.7, "unit": "%"}, {"measurement": "active, responding nematodes per total examined (viable/total), Mean", "setting": "1000 ppm", "result": "33/452"}, {"measurement": "active, responding nematodes per total examined (viable/total), Replication 1", "setting": "1000 ppm", "result": "25/449"}, {"measurement": "active, responding nematodes per total examined (viable/total), Replication 2", "setting": "1000 ppm", "result": "39/444"}, {"measurement": "active, responding nematodes per total examined (viable/total), Replication 3", "setting": "1000 ppm", "result": "40/454"}, {"measurement": "active, responding nematodes per total examined (viable/total), Replication 4", "setting": "1000 ppm", "result": "27/460"}, {"measurement": "active, responding nematodes per total examined (viable/total), Total", "setting": "1000 ppm", "result": "131/1807"}]}]}
